Source: PMC3891835 (American journal of obstetrics and gynecology, 2012)
Where a name gives a salt, the structure may show the parent alone.

How the values were obtained:
[1] = cited from earlier work
P-glycoprotein (P-gp) [2] = target: T1, P-glycoprotein (P-gp) (Homo sapiens, UniProt P08183); test: biochemical
P-glycoprotein (P-gp) [3] = target: T1, P-glycoprotein (P-gp); details: placental IOV; concentration range tested 100 to 1000 μM; 40 nM [3H]-paclitaxel

T1 sequence (P08183 whole entry): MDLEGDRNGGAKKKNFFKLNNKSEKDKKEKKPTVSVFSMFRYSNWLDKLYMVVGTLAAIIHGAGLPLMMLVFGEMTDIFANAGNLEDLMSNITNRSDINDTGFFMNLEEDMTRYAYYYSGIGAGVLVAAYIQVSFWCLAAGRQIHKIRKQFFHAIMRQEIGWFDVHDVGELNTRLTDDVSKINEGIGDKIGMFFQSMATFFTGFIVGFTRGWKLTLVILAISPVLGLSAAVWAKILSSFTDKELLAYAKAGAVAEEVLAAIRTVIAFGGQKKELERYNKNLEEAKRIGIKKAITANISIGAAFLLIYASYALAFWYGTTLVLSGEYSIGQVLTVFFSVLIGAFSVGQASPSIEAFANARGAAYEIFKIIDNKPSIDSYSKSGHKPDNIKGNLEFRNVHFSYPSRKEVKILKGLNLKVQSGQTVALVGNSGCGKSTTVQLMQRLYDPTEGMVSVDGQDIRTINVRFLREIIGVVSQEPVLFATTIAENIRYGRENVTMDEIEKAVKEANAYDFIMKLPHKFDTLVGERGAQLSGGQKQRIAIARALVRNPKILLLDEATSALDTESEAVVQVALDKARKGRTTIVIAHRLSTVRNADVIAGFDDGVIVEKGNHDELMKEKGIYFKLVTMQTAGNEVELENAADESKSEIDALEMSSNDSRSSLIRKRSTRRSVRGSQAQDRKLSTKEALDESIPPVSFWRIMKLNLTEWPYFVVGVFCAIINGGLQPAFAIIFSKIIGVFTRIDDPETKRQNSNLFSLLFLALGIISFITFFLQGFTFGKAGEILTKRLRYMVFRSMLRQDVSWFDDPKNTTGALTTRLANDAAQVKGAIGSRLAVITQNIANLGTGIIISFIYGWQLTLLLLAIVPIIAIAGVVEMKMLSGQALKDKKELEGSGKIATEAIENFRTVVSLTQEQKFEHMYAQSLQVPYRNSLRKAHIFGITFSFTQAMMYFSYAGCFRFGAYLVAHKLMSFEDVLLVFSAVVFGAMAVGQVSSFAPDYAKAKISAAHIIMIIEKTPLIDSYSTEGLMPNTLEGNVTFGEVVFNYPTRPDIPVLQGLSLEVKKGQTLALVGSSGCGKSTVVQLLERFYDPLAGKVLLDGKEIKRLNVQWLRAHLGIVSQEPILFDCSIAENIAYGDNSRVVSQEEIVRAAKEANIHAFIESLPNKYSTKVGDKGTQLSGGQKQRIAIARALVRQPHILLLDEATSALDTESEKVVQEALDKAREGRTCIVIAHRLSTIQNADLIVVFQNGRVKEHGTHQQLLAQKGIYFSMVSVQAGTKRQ

| Compound | binding to proteins [1] | IC50 (P-glycoprotein (P-gp) [2]) | effect on the ATP-dependent uptake of [3H]-paclitaxel by IOV (P-glycoprotein (P-gp) [3]) |
| --- | --- | --- | --- |
| CCCCCCCCCCNCCN[C@@]1(C)C[C@H](O[C@H]2[C@H](Oc3c4cc5cc3Oc3ccc(cc3Cl)[C@@H](O)[C@@H](NC(=O)[C@@H](CC(C)C)NC)C(=O)N[C@@H](CC(N)=O)C(=O)N[C@H]5C(=O)N[C@H]3C(=O)N[C@H](C(=O)N[C@H](C(=O)O)c5cc(O)c(CNCP(=O)(O)O)c(O)c5-c5cc3ccc5O)[C@H](O)c3ccc(c(Cl)c3)O4)O[C@H](CO)[C@@H](O)[C@@H]2O)O[C@@H](C)[C@H]1O [telavancin, Telavancin] | 93% | 50 µM |  |
| CN[C@H](CC(C)C)C(=O)N[C@H]1C(=O)N[C@@H](CC(N)=O)C(=O)N[C@H]2C(=O)N[C@H]3C(=O)N[C@H](C(=O)N[C@H](C(=O)O)c4cc(O)cc(O)c4-c4cc3ccc4O)[C@H](O)c3ccc(c(Cl)c3)Oc3cc2cc(c3O[C@@H]2O[C@H](CO)[C@@H](O)[C@H](O)[C@H]2O[C@H]2C[C@](C)(N)[C@H](O)[C@H](C)O2)Oc2ccc(cc2Cl)[C@H]1O [vancomycin, vancomycin hydrochloride] | 50% |  | did not affect |
